Two compounds from patent US6645918B1, “N-([1,2,4]triazoloazinyl)thiophenesulfonamide compounds and their use as herbicides” (Dow AgroSciences LLC, priority 2000, dated 2003) can be followed below.

Holding throughout (format): in vivo
In assay [1] the test system is cocklebur (Xanthium strumarium). Briefly: Preemergence herbicidal activity, cocklebur. The following applies: soil spray, visual after 3 weeks, 0 no injury, 100 complete kill or no germination. As for the experimental part: (§1) The soil matrix was contained in plastic pots with a surface area of 161 square centimeters. When required to ensure good germination and healthy plants, a fungicide treatment and/or other chemical or physical treatment was applied. A weighed amount, determined by the highest rate to be tested, of each test compound was placed in a 20 mL glass vial and was dissolved in 8 mL of a 97:3 v/v (volume/volume) mixture of acetone and dimethyl sulfoxide to obtain concentrated stock solutions. […] The stock solutions obtained were diluted with a 99.9:0.1 mixture of water and Tween® 155 surfactant (ethoxylated sorbitan fatty acid ester) to obtain application solutions of known concentration. The solutions containing the highest concentration to be tested were prepared by diluting 4 mL aliquots of the stock solution with 8.5 mL of the mixture and lower concentrations were prepared by dilution of appropriate smaller portions of the stock solution. A 2.5 mL aliquot of each solution of known concentration was sprayed evenly onto the soil of each seeded pot using a Cornwall 5.0 mL glass syringe fitted with a TeeJet TN-3 hollow cone nozzle to obtain thorough coverage of the soil in each pot. Control pots were sprayed in the same manner with the aqueous mixture. A highest application rate of 4.48 kg/ha is achieved when 50 mg of test compound is employed. The treated pots and control pots were placed in a greenhouse with an approximately 15 hr photoperiod which was maintained at about 23-29° C. during the day and 22-28° C. during the night. Nutrients and water were added on a regular basis and supplemental lighting was provided with overhead metal halide 1000 Watt lamps as necessary. The water was added by top-irrigation. After 3 weeks the condition of the test plants that germinated and grew as compared with that of the untreated plants that germinated and grew was determined visually and scored on a scale of 0 to 100 percent where 0 corresponds to no injury and 100 corresponds to complete kill or no germination.

Assay [2] has as its system crabgrass (Digitaria sanguinalis). Nature of the assay: Preemergence herbicidal activity, crabgrass. The following applies: soil spray, visual after 3 weeks, 0 no injury, 100 complete kill or no germination. Here is the method: as §1
Assay [3] deals with wild oats (Avena fatua). Briefly: Preemergence herbicidal activity, wild oats. The following applies: soil spray, visual after 3 weeks, 0 no injury, 100 complete kill or no germination. As for the experimental part:
as §1

Another assay concerns viola (Viola tricolor). Nature of the assay: Postemergence herbicidal activity, viola. Conditions: foliar spray, visual after 2 weeks, 0 no injury, 100 complete kill. Here is the method: (§2) Seeds of the desired test plant species were planted in Grace-Sierra MetroMix® 306 planting mixture, which typically has a pH of 6.0 to 6.8 and an organic matter content of about 30 percent, in plastic pots with a surface area of 64 square centimeters. When required to ensure good germination and healthy plants, a fungicide treatment and/or other chemical or physical treatment was applied. The plants were grown for 7-21 days in a greenhouse with an approximately 15 hr photoperiod which was maintained at about 23-29° C. during the day and 22-28° C. during the night. Nutrients and water were added on a regular basis and supplemental lighting was provided with overhead metal halide 1000 Watt lamps as necessary. The plants were employed for testing when they reached the first or second true leaf stage. A weighed amount of each test compound, determined by the highest rate to be tested, was placed in a 20 mL glass vial and was dissolved in 4 mL of a 97:3 v/v (volume/volume) mixture of acetone and dimethyl sulfoxide to obtain concentrated stock solutions. […] The concentrated stock solutions obtained were diluted with an aqueous mixture containing acetone, water, iso-propyl alcohol, dimethyl sulfoxide, Atplus 411F crop oil concentrate, and Triton X-155 surfactant (methylenebisdiamyl phenoxy polyethoxy ethanol) in a 48.5:39:10:1.5:1.0:0.02 v/v ratio to obtain spray solutions of known concentration. The solutions containing the highest concentration to be tested were prepared by diluting 2 mL aliquots of the stock solution with 13 mL of the mixture and lower concentrations were prepared by dilution of appropriate smaller portions of the stock solution. Approximately 1.5 mL aliquots of each solution of known concentration were sprayed evenly onto each of the test plant pots using a DeVilbiss atomizer driven by compressed air pressure of 2 to 4 psi (140 to 280 kilopascals) to obtain thorough coverage of each plant. Control plants were sprayed in the same manner with the aqueous mixture. In this test an application rate of 1 ppm results in the application of approximately 1 g/ha. The treated plants and control plants were placed in a greenhouse as described above and watered by sub-irrigation to prevent wash-off of the test compounds. After 2 weeks the condition of the test plants as compared with that of the untreated plants was determined visually and scored on a scale of 0 to 100 percent where 0 corresponds to no injury and 100 corresponds to complete kill.

The test system of assay [4] is velvetleaf (Abutilion theophrasti). Briefly: Postemergence herbicidal activity, velvetleaf. Conditions: foliar spray, visual after 2 weeks, 0 no injury, 100 complete kill. As for the experimental part:
as §2

For assay [5], the system named is wild oats (Avena fatua). Briefly: Postemergence herbicidal activity, wild oats. The following applies: foliar spray, visual after 2 weeks, 0 no injury, 100 complete kill. As for the experimental part: as §2
Assay [6] has as its system chickweed (Stellaria media). Nature of the assay: Postemergence herbicidal activity, chickweed. Conditions: foliar spray, visual after 2 weeks, 0 no injury, 100 complete kill. Here is the method: as §2
The test system of assay [7] is blackgrass (Alopecurus myosuroides). Briefly: Postemergence herbicidal activity, blackgrass. Conditions: foliar spray, visual after 2 weeks, 0 no injury, 100 complete kill. As for the experimental part:
as §2

In assay [8] the test system is giant foxtail (Setaria faberi). Nature of the assay: Preemergence herbicidal activity, giant foxtail. Conditions: soil spray, visual after 3 weeks, 0 no injury, 100 complete kill or no germination. As for the experimental part:
as §1

The test system of assay [9] is Rox orange sorghum (Sorghum bicolor). Nature of the assay: Postemergence herbicidal activity, Rox orange sorghum. The following applies: foliar spray, visual after 2 weeks, 0 no injury, 100 complete kill. As for the experimental part:
as §2

Assay [10] relates to morningglory (Ipomoea hederacea). Nature of the assay: Preemergence herbicidal activity, morningglory. The following applies: soil spray, visual after 3 weeks, 0 no injury, 100 complete kill or no germination. Here is the method: as §1
Assay [11] has as its system giant foxtail (Setaria faberi). Briefly: Postemergence herbicidal activity, giant foxtail. Conditions: foliar spray, visual after 2 weeks, 0 no injury, 100 complete kill. Here is the method: as §2
The subject of assay [12] is pigweed (Amaranthus retroflexus). Briefly: Preemergence herbicidal activity, pigweed. The following applies: soil spray, visual after 3 weeks, 0 no injury, 100 complete kill or no germination. Here is the method: as §1
The subject of assay [13] is wild poinsettia (Euphorbia heterophylla). Briefly: Preemergence herbicidal activity, wild poinsettia. The following applies: soil spray, visual after 3 weeks, 0 no injury, 100 complete kill or no germination. Here is the method: as §1
For assay [14], the system named is barnyardgrass (Echinochloa crus-galli). Nature of the assay: Preemergence herbicidal activity, barnyardgrass. Conditions: soil spray, visual after 3 weeks, 0 no injury, 100 complete kill or no germination. As for the experimental part:
as §1

The test system of assay [15] is lambsquarters (Chenopodium album). Nature of the assay: Postemergence herbicidal activity, lambsquarters. The following applies: foliar spray, visual after 2 weeks, 0 no injury, 100 complete kill. Here is the method:
as §2

The subject of assay [16] is morningglory (Ipomoea hederacea). Briefly: Postemergence herbicidal activity, morningglory. The following applies: foliar spray, visual after 2 weeks, 0 no injury, 100 complete kill. As for the experimental part:
as §2

Assay [17] concerns velvetleaf (Abutilion theophrasti). Nature of the assay: Preemergence herbicidal activity, velvetleaf. The following applies: soil spray, visual after 3 weeks, 0 no injury, 100 complete kill or no germination. Here is the method: as §1
The subject of assay [18] is Rox orange sorghum (Sorghum bicolor). Nature of the assay: Preemergence herbicidal activity, Rox orange sorghum. Conditions: soil spray, visual after 3 weeks, 0 no injury, 100 complete kill or no germination. As for the experimental part:
as §1

The test system of assay [19] is blackgrass (Alopecurus myosuroides). Nature of the assay: Preemergence herbicidal activity, blackgrass. Conditions: soil spray, visual after 3 weeks, 0 no injury, 100 complete kill or no germination. As for the experimental part:
as §1

For assay [20], the system named is cocklebur (Xanthium strumarium). Nature of the assay: Postemergence herbicidal activity, cocklebur. Conditions: foliar spray, visual after 2 weeks, 0 no injury, 100 complete kill. Here is the method:
as §2

The subject of assay [21] is lambsquarters (Chenopodium album). Nature of the assay: Preemergence herbicidal activity, lambsquarters. The following applies: 8.8 g/Ha, soil spray, visual after 3 weeks; 0 no injury, 100 complete kill or no germination. Here is the method: as §1

For the compound `COc1sccc1S(=O)(=O)Nc1nc2c(C)cnc(OC)n2n1` [Compound 9], in assay [1] (70 g/Ha), the “XANST preemergence injury score 0-100” value worked out at 25%. Moreover, the “DIGSA preemergence injury score 0-100” value in assay [2] (70 g/Ha) worked out at 10%. Moreover, the “AVEFA preemergence injury score 0-100” value in the assay with wild oats (Avena fatua) [3] (70 g/Ha) amounted to 30%. In the assay with viola (Viola tricolor) (62 ppm), the “VIOTR postemergence injury score 0-100” value is recorded as 60%. In addition, the “ABUTH postemergence injury score 0-100” value in assay [4] (62 ppm) came out at 70%. The “AVEFA postemergence injury score 0-100” value in the assay on wild oats (Avena fatua) [5] (62 ppm) came to 10%. In addition, in [6] (62 ppm), the “STEME postemergence injury score 0-100” value is on record as 95%. In addition, the “ALOMY postemergence injury score 0-100” value in assay [7] (62 ppm) amounted to 60%. Besides, the “SETFA preemergence injury score 0-100” value in assay [8] (70 g/Ha) is given as 15%. Also, the “SORBI postemergence injury score 0-100” value in assay [9] (62 ppm) is given as 70%. Also, the “IPOHE preemergence injury score 0-100” value in assay [10] (70 g/Ha) is given as 10%. Also, the “SETFA postemergence injury score 0-100” value in assay [11] (62 ppm) was found to be 20%. Also, in [12] (70 g/Ha), the “AMARE preemergence injury score 0-100” value is given as 40%. The “EPHHL preemergence injury score 0-100” value in assay [13] (70 g/Ha) is 10%. For the same compound, the “ECHCG preemergence injury score 0-100” value in assay [14] (70 g/Ha) is reported as 0%. Besides, the “CHEAL postemergence injury score 0-100” value in assay [15] (62 ppm) is 40%. In addition, the “IPOHE postemergence injury score 0-100” value in assay [16] (62 ppm) turned out to be 70%. Moreover, in assay [17] (70 g/Ha), the “ABUTH preemergence injury score 0-100” value worked out at 30%. In addition, the “SORBI preemergence injury score 0-100” value in [18] (70 g/Ha) amounted to 50%. Also, the “ALOMY preemergence injury score 0-100” value in [19] (70 g/Ha) worked out at 100%. The “XANST postemergence injury score 0-100” value in assay [20] (62 ppm) was 60%.

Turning to `COc1sccc1S(=O)(=O)Nc1nc2c(OC)cnc(OC)n2n1` [Compound 8], the “XANST preemergence injury score 0-100” value in assay [1] (8.8 g/Ha) was 80%. Besides, in assay [2] (8.8 g/Ha), the “DIGSA preemergence injury score 0-100” value is reported as 50%. Besides, the “AVEFA preemergence injury score 0-100” value with wild oats (Avena fatua) [3] (8.8 g/Ha) worked out at 80%. The “VIOTR postemergence injury score 0-100” value in the assay with viola (Viola tricolor) (7.8 ppm) was determined as 75%. In addition, the “ABUTH postemergence injury score 0-100” value in assay [4] (7.8 ppm) worked out at 75%. Further, the “AVEFA postemergence injury score 0-100” value with wild oats (Avena fatua) [5] (7.8 ppm) was 85%. Moreover, in [6] (7.8 ppm), the “STEME postemergence injury score 0-100” value was 95%. For the same compound, in [7] (7.8 ppm), the “ALOMY postemergence injury score 0-100” value is 50%. Besides, the “SETFA preemergence injury score 0-100” value in [8] (8.8 g/Ha) is recorded as 60%. Besides, the “SORBI postemergence injury score 0-100” value in assay [9] (7.8 ppm) is 95%. The “IPOHE preemergence injury score 0-100” value in assay [10] (8.8 g/Ha) stood at 75%. Besides, the “SETFA postemergence injury score 0-100” value in assay [11] (7.8 ppm) turned out to be 60%. Besides, the “AMARE preemergence injury score 0-100” value in [12] (8.8 g/Ha) worked out at 80%. Moreover, the “EPHHL preemergence injury score 0-100” value in assay [13] (8.8 g/Ha) is given as 85%. In [14] (8.8 g/Ha), the “ECHCG preemergence injury score 0-100” value worked out at 25%. The “CHEAL postemergence injury score 0-100” value in assay [15] (7.8 ppm) came to 70%. For the same compound, in assay [21], the “CHEAL preemergence injury score 0-100” value was found to be 70%. Besides, in assay [16] (7.8 ppm), the “IPOHE postemergence injury score 0-100” value was determined as 60%. Also, in assay [17] (8.8 g/Ha), the “ABUTH preemergence injury score 0-100” value was found to be 70%. For the same compound, in assay [18] (8.8 g/Ha), the “SORBI preemergence injury score 0-100” value worked out at 70%. Moreover, the “ALOMY preemergence injury score 0-100” value in assay [19] (8.8 g/Ha) is given as 85%. Besides, in [20] (7.8 ppm), the “XANST postemergence injury score 0-100” value is reported as 60%.
